Laboratory results: patent US20240366756A1, “COMBINATIONS AND USES THEREOF” (Incyte Corporation, priority 2011, published 2024)
Marks after values point to notes of the source that are not given here.

Assays:
[1] = test system: MEC-1 cells; assay: Cytotoxicity/ADCC cell killing of MEC-1 cells with PBMCs (FACS, propidium iodide); assay type: cell-based, human; details: for normalized specific killing: combination set to 1, Bendamustine 100 μg/ml, MOR00208 6.6 pM; for % dead cells: MOR00208 6.6 pm, BEN 100 μg/ml (48 h pre-incubation), E:T 30:1, 4 h, control RefMab33
From the text: MEC-1 cells: chronic B-cell leukemia cell line DSMZ #ACC497; Cell Medium: Iscove's Modified Dulbecco's Medium (IMDM) with GlutaMAX™, Invitrogen, Cat No.: 31980-048, 20% FCS; PBMCs: RPMI1640, with stabile Glutamine, PAN Biotech GmbH, Cat No.: P04-13500 supplemented with 10% FCS; Biocoll: Biochrome AG CAT No.: L6115 LOT No.: 1050T; Bendamustine: Mundipharma LOT No.: 88018; FCS: PAN CAT No.: 3302-P282403 LOT No.: P282403; and RefmAb33 (anti-RSV) with same Fc region as MOR00208.
The cytotoxicity of MOR00208 and bendamustine alone and in combination was tested in MEC-1 cells. BEN is an alkylating agent, therefore, functions via direct cytoxicity in MEC-1 cells. MOR00208 targets CD19 and additionally functions via ADCC in killing MEC-1 cells. For the following groups MEC-1 cell killing was measured: BEN at 100 μg/ml; MOR00208 at 6.6 pm and the combination of MOR00208 at 6.6 pm and BEN at 100 μg/ml. […] The following were used as controls: RefmAb33, or PBMCs alone. In both the BEN group and MOR00208+BEN combination group, MEC-1 cells were pre-incubated with BEN 48 hours prior to the ADCC assay measurements. The MEC-1 cells were stained using 1 mg/ml Calcein AM then counted and adjusted to 2×10^5/ml. The PBMCs were counted and adjusted to 6×10^6/ml. The cell killing assays were done as follows: using 96 well plates, a 100 μl cell suspension of MEC-1 cells was added per well, then 100 μl cell suspension of PBMCs was added to each well resulting in an E:T ratio of 30:1. The antibodies were diluted to 1 μg/ml in medium. Cells were centrifuged and re-suspended. To the target:effector cell-pellet, 100 μl antibody solution or according control solution was added. The mixture was incubated for 4 h in CO2-incubator at 37° C. The cell killing measurements were taken as follows: the incubated cell solution (˜100 μl) was transferred into FACS tubes and 200 μl FACS buffer (DPBS+3% FCS) and 0.5 μl PI stock solution was added to each tube. FACS-Calibur was used. Dead MEC-1 cells were stained with propidium iodide.
The values represent % dead cells. Each experiment represents PBMCs from different donors. The controls used for each experiment was RefMab33.
The values shown in Table 2 are calculated as follows: 1) from the raw data (% dead cells) shown in Table 1, the background (controls) were subtracted, resulting in the specific killing for each treatment group; then 2) the specific killing values were normalized by setting the combination of MOR00208+BEN to 1. The averages of Table 2 are depicted in FIG. 5.
[…] (CI) calculations were completed in order to determine synergy of the combination of the exemplified anti-CD19 antibody and bendamustine as compared to MOR00208 and BEN alone. Such calculations are described in Ting-Chao Chou, Theoretical Basis, Experimental Design, and Computerized Simulation of Synergism and Antagonism in Drug Combination Studies, Pharmacol Rev 58:621-681 (2006), which is incorporated by reference in its entirety and Chou T C, Talalay P, Quantitative analysis of dose-effect relationships: the combined effects of multiple drugs or enzyme inhibitors. Adv Enzyme Regul 22:27-55 (1984), which is incorporated by reference in its entirety. The methods of Chou-Talalay are carried out using the CI-isobol method.
The median-effect equation models of the effect of an inhibitor (such as a drug) as Fa/Fu=(D/D50)^m, where D is the dose, Fa and Fu is the fraction of the system affected and unaffected by the dose D (Fa+Fu=1); D50 is the dose producing the median effect (e.g. IC50, ED50, LD50). The constant m determines the shape of the dose-effect curve. We used Excel Fit software to carry out a linear regression calculation to estimate the parameters m and D50.
The effects of the combination on MEC-1 cells is measured % cell death as described above.

[2] = test system: RAMOS human Burkitt's lymphoma cells; assay: Human Non-Hodgkin RAMOS tumor in SCID mice, survival model; assay type: in vivo; details: for Median Survival (Days Post-Inoculation): treatment related deaths excluded; for Median % Increase in Lifespan (ILS): vs. vehicle control/Ref_mAb_33; for Survival, pairwise comparison (Holm-Sidak) vs. Group 3: Group 3 = Bendamustine (16 mg/kg), listed as Bendamustine = 13 mg/kg
Method: Cyclophosphamide (Baxter, Lot. No. 1A548C); Vehicle Control: 0.9% sodium chloride, 25 mg/ml mannitol, pH 6.5-6.8 (adjusted with 0.01 M NaOH); SCID Mice (University of Adelaide, Waite Campus, Urrbaraie, SA, Australia, Strain C.B.-17-Igh-1^b-Prkdc^scid); RAMOS human Burkitt's lymphoma cells (ATCC number CRL-1596); Ref_mAb_33_IgG_Xen (10 mg/mL in PBS, referred to as Ref_mAb_33); Bendamustine (Mundipharma, Lot No. 83889).
SCID mice were pre-treated with Cyclophosphamide (75 mg/kg, i.p., twice daily) for two days prior to RAMOS cell inoculation (Day −2 and −1). On the day of inoculation (Day 0), the mice were separated into seven groups of ten mice each, and inoculated with 1×10^6 RAMOS cells each intravenously into the tail vein. The planned dosing regimen for each group is shown in Table 5 and commenced on Day 3. The study duration was 60 days.
From the raw data shown in Table 6, both the median survival in days and median increase in lifespan were calculated. All treatment related deaths were excluded in the calculations.
Median % Increased Lifespan (ILS) is calculated as follows: […]
The classification of the MOR000208/Bendamustine combination therapy (combo) effect was evaluated by comparing the ILS of the combination with the added ILS of the respective monotherapies:
Synergy/Potentiation*: ILSCombo>ILSMOR00208 3 mg/kg+ILSBendamustine. Synergistic effects are classified as potentiation if at least one of the monotherapies has no effect. Additivity: ILSCombo=ILSMOR00208 3 mg/kg+ILSBendamustine. Antagonism: ILSCombo<ILSMOR00208 3 mg/kg+ILSBendamustine.
In addition to an analysis of the data for purposes of identifying synergy, the following statistical analysis was also completed. Statistical analyses were carried out using the median values. Any animal that died unexpectedly or was culled prior to Day 17 of the study in the Test Article treatment groups was excluded from survival analysis calculation. The death/culling of these animals was attributed to compound toxicity rather than disease progression as they occurred well in advance of the first deaths in the Vehicle Control animals. A survival curve was created using the product limit of Kaplan and Meier, and survival curves compared using the log-rank (Mantel-Cox) test. Where significant differences were found, All Pairwise Multiple Comparison (Holm-Sidak Test) was performed. Comparison was done between all groups. In addition the comparison of the following groups were summarised in separate figures for each test article: Vehicle Control/Ref_mAb (group 10) against Bendamustine groups (Groups 2, 3 and 4) and Vehicle Control/Ref_mAb (group 10) against Combination groups (Groups 5 and 6) or respective MOR00208 monotherapy group (group 1). A p value of less than 0.05 was considered significant.

[3] = biological target: T1, Human CD19 (human, UniProt P15391 20-556); assay: cell-based or functional assay
T1 sequence: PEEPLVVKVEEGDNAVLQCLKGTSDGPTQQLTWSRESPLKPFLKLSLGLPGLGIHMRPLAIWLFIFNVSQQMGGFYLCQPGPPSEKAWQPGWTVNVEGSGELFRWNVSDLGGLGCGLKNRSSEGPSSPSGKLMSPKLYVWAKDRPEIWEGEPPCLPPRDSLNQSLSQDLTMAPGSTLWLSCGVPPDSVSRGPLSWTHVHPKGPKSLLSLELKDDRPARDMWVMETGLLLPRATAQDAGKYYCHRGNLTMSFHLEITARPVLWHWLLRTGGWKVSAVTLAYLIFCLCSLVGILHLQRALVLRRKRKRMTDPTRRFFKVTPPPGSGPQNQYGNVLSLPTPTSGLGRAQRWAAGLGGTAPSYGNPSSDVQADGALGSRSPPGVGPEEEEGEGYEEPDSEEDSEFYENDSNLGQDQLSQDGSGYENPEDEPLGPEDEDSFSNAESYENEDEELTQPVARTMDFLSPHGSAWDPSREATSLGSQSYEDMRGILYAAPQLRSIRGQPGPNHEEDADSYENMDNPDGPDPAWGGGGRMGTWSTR

Cn1c(CCCC(=O)O)nc2cc(N(CCCl)CCCl)ccc21 [Bendamustine, reference compound]
normalized specific killing ([1]; Average of experiments 1-3): 0.8
% dead cells ([1]; Experiment 1 (PBMC donor)): 83.6%
normalized specific killing ([1]; Experiment 1, background subtracted): 0.85
% dead cells ([1]; Experiment 2 (PBMC donor)): 53.3%
normalized specific killing ([1]; Experiment 2, background subtracted): 0.75
% dead cells ([1]; Experiment 3 (PBMC donor)): 75.6%
normalized specific killing ([1]; Experiment 3, background subtracted): 0.85
EC50 ([1]; Homo sapiens, MEC1, read-out: EC50 (MEC-1 cell killing)): ~100 µg/mL
Bonferroni's Multiple Comparison Test Mean Diff. ([1]; normalized specific killing, monotherapy vs. BEN + MOR00208 combination): −0.1834
Median Survival (Days Post-Inoculation) ([2]; 13 mg/kg): 24^b Days Post-Inoculation
Median % Increase in Lifespan (ILS) ([2]; 13 mg/kg): −5.88%
Median Survival (Days Post-Inoculation) ([2]; 16 mg/kg): 24^c Days Post-Inoculation
Median % Increase in Lifespan (ILS) ([2]; 16 mg/kg): −5.88%
Survival, pairwise comparison (Holm-Sidak) vs. Group 3 ([2]; Table 8): No (No: There is no statistically significant difference (p ≥ 0.05).)
Survival, pairwise comparison (Holm-Sidak) vs. Group 3 ([2]; untitled repeat of Table 8): No (No: There is no statistically significant difference (p ≥ 0.05).)

B1: MOR00208 (antibody, human IgG1, kappa, V domains shown)
VH: EVQLVESGGGLVKPGGSLKLSCAASGYTFTSYVMHWVRQAPGKGLEWIGYINPYNDGTKYNEKFQGRVTISSDKSISTAYMELSSLRSEDTAMYYCARGTYYYGTRVFDYWGQGTLVTVSS
VL: DIVMTQSPATLSLSPGERATLSCRSSKSLQNVNGNTYLYWFQQKPGQSPQLLIYRMSNLNSGVPDRFSGSGSGTEFTLTISSLEPEDFAVYYCMQHLEYPITFGAGTKLEIKR
EC50 of MEC-1 cell killing (ADCC with human PBMCs) [3]: ~6.6 pM
